Key:
[1] = Storage stability of the crystal forms (humidity, temperature, dry nitrogen); type: physicochemical; settings: for conversion to hydrated or other crystalline forms on storage / stability under humid atmosphere / high relative humidity: stored at high, such as 75% or 90%, relative humidity in air at elevated temperature
[2] = Water solubility of crystal forms; type: physicochemical
[3] = Solubility in solvents; type: physicochemical
[4] = system: psychosis and other neuropsychiatric disorders; settings: in vivo; cited from earlier work
[5] = system: schizophrenics; settings: cited from earlier work
[6] = system: Alzheimer's Disease patients; settings: cited from earlier work

Clc1ccc2c(c1)N=C(N1CCNCC1)c1ccccc1N2 [8-chloro-11-(1-piperazinyl)-5H-dibenzo[b,e]-[1,4]diazepin]
stability of mixtures of crystal forms A and B [1]: very stable

Clc1ccc2c(c1)N=C(N1CCNCC1)c1ccccc1N2 [Form A, 8-chloro-11-(1-piperazinyl)-5H-dibenzo[b,e]-[1,4]diazepin]
physical and chemical stability ([1]; form obtained at ambient temperatures): excellent physical and chemical stability properties
conversion to hydrated or other crystalline forms on storage [1]: does not convert to the hydrated forms or other crystalline forms
stability under humid atmosphere / high relative humidity [1]: very stable under humid atmosphere
water solubility [2]: better water solubility than crystal form B

Clc1ccc2c(c1)N=C(N1CCNCC1)c1ccccc1N2 [Form B, 8-chloro-11-(1-piperazinyl)-5H-dibenzo[b,e]-[1,4]diazepin]
stability at elevated temperatures or under dry nitrogen ([1]; elevated temperatures or dry nitrogen, loses its water and is transformed into Form D): unstable
stability under normal conditions ([1]; normal conditions, ambient temperatures): very stable
conversion to hydrated or other crystalline forms on storage [1]: No conversion to other crystalline forms or hydrates was observed
stability under humid atmosphere / high relative humidity [1]: very stable hydrate
water solubility [2]: specially water soluble

Clc1ccc2c(c1)N=C(N1CCNCC1)c1ccccc1N2 [Form D, 8-chloro-11-(1-piperazinyl)-5H-dibenzo[b,e]-[1,4]diazepin]
time to formation of Form B on contact with humidity ([1]; contacted with humidity): within hours
stability under exclusion of humidity ([1]; exclusion of humidity, ambient temperature): stable
solubility in solvents [3]: satisfying solubility in solvents

Clc1ccc2c(c1)N=C(N1CCNCC1)c1ccccc1N2 [NDMC, 8-chloro-11-(1-piperazinyl)-5H-dibenzo[b,e]-[1,4]diazepin]
effectiveness in the treatment of psychosis and other neuropsychiatric disorders [4]: effective in the treatment of psychosis and other neuropsychiatric disorders

CCCCCCOc1nsnc1C1=CCCN(C)C1 [Xanomeline]
adverse motoric effects ([5]; initial clinical studies in schizophrenics): did not induce adverse motoric effects
efficacy in treating schizophrenia ([5]; schizophrenia): efficacious in treating schizophrenia
efficacy against positive and negative symptoms ([5]; schizophrenics): efficacy against both positive and negative symptoms
efficacy in controlling psychosis and related behavioral disturbances [6]: efficacy in controlling psychosis and related behavioral disturbances
